The target of the assay is Histone-lysine N-methyltransferase 2A (Homo sapiens) (UniProt Q03164). In words: disruptors of menin binding to MLL peptide – biochemical, fluorescence polarization, SAR follow-up (AID 743469). The note with it: menin + fluorescein MLL peptide. On the technique in general: Fluorescence polarisation rises when a labelled molecule tumbles more slowly, as on binding a larger partner.

Five compounds from PubChem BioAssay AID743469 (Vanderbilt Specialized Chemistry Center, 2014) can be followed below.

SMILES strings stand for the structures. The source made the active and inactive calls. How the calls were made is not given here.

Chain of Histone-lysine N-methyltransferase 2A (Homo sapiens) (Q03164 whole entry, looked up): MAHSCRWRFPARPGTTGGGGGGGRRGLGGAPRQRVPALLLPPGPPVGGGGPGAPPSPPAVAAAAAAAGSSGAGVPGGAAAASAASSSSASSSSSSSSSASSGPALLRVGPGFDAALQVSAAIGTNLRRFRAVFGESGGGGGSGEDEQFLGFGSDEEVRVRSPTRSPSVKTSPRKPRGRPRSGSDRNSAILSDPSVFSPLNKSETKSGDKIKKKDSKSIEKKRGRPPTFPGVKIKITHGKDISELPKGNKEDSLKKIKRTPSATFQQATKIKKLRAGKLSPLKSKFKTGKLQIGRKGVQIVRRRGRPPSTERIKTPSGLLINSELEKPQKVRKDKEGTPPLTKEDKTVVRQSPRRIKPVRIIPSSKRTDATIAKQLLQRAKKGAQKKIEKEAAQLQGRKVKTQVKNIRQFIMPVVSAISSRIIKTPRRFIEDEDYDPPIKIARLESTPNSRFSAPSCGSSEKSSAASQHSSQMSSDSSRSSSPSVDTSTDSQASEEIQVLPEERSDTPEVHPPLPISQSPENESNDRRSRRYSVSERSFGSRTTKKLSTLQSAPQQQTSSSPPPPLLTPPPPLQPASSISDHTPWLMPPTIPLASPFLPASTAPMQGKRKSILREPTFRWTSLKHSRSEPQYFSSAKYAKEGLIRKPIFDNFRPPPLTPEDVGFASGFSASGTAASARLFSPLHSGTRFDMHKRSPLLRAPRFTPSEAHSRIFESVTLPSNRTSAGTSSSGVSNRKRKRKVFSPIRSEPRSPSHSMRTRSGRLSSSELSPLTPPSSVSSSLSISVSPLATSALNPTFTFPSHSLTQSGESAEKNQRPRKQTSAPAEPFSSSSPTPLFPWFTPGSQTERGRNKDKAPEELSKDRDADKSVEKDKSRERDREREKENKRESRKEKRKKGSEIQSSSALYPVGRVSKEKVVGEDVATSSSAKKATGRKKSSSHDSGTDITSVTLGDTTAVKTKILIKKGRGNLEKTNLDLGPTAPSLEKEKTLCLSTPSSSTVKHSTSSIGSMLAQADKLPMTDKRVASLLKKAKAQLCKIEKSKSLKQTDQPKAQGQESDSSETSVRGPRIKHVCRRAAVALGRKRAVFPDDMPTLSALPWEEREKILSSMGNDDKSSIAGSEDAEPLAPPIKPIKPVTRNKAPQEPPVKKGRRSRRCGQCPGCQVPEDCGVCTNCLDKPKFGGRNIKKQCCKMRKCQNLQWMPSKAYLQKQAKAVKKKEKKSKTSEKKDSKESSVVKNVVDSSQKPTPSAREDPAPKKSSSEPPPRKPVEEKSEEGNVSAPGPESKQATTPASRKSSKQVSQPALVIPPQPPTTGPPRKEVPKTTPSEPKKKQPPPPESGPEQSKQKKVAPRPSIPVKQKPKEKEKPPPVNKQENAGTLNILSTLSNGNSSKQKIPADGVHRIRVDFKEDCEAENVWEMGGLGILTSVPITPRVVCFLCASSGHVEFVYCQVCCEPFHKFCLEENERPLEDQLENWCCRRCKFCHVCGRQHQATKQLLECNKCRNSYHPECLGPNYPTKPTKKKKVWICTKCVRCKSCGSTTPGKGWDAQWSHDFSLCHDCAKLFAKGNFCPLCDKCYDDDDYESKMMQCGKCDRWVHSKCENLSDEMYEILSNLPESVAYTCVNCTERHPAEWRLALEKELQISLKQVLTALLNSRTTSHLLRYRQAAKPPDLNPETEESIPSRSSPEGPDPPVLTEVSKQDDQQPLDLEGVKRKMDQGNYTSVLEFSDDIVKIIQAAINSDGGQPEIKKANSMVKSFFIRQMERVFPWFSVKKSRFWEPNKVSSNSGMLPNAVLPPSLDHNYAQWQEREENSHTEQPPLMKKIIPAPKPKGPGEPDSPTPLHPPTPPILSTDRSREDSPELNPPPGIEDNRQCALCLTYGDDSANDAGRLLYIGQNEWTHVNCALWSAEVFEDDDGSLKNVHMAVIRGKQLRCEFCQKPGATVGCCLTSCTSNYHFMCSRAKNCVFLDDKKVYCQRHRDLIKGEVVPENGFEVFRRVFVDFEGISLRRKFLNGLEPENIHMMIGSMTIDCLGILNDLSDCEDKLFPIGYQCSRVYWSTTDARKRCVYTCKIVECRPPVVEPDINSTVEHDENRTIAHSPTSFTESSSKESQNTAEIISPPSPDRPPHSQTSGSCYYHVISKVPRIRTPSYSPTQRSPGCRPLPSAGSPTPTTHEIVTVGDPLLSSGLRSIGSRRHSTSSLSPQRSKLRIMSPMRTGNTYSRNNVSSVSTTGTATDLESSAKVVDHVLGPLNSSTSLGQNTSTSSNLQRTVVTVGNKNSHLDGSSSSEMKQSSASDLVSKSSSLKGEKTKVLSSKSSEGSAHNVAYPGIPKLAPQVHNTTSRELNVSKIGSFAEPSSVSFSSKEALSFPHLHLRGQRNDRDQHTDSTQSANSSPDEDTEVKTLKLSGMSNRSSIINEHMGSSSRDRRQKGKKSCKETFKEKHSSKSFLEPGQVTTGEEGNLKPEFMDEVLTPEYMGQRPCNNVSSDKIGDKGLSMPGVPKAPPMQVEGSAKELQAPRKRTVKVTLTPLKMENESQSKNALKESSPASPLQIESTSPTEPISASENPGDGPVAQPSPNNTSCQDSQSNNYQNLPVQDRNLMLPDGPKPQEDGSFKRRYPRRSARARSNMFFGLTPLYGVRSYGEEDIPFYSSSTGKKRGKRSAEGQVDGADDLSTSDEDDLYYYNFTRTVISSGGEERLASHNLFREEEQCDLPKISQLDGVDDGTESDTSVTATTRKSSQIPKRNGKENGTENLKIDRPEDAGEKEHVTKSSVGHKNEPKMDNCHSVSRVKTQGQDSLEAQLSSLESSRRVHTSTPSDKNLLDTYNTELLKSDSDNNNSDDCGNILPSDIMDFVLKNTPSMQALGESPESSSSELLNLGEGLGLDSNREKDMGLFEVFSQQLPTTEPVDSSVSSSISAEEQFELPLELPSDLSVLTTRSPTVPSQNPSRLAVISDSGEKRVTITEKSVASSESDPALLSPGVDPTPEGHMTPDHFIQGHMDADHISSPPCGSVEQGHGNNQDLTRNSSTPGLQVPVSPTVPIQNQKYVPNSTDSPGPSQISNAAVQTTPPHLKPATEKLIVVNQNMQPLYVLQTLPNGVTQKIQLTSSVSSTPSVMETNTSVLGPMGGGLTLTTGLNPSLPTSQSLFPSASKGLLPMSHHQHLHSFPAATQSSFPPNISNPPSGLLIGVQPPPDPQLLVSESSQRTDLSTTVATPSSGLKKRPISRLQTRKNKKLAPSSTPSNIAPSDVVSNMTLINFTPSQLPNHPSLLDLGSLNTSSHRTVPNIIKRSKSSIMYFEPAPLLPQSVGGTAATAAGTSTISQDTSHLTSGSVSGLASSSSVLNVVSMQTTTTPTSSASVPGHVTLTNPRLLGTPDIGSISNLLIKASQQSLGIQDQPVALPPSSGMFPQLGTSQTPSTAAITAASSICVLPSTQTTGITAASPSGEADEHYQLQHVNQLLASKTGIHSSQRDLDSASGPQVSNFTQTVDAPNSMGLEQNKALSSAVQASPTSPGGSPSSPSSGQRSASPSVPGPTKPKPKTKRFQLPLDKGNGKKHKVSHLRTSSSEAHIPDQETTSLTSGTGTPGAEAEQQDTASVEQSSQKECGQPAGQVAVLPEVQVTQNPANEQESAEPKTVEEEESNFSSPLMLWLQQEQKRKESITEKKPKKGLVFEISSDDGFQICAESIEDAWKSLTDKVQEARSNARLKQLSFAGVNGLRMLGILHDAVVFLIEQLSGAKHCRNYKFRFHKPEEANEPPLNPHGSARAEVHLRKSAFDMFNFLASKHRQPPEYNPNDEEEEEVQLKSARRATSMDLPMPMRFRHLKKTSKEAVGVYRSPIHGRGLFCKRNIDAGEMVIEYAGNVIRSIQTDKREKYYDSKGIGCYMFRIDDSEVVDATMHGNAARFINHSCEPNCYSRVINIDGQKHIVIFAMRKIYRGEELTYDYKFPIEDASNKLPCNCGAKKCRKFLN

For `NS(=O)(=O)c1ccc(OCCCN2CCC(C(O)(c3cccc(F)c3)c3nccs3)CC2)cc1` (stereo not given), the IC50 is 43.7 nM.

On to `N#Cc1ccc(OCCCN2CCC(C(O)(c3cc(F)cc(F)c3)c3ccccn3)CC2)cc1` (stereo not given), for which the 50% inhibitory concentration (IC50) was 43.7 nM.

`N#Cc1ccc(OCCCN2CCC(C(O)(c3ccccc3)C3CCCC3)CC2)nc1` (stereo not given): the outcome was inactive.

For the compound `N#Cc1ccc(OCCCN2CCC(C(O)(c3cccnc3)C3CCCC3)CC2)cc1` (stereo not given), the IC50 was 709 nM.

With `N#Cc1ccc(OCCCN2CCC(C(O)(c3cccc(F)c3)c3nccs3)CC2)cc1` (stereo not given), the 50% inhibitory concentration (IC50) is 19.7 nM.

In general, IC50 refers to the concentration that inhibits the measured activity by half.
